Patent publication US20200341000A1, “METHOD OF SCREENING COMPOUNDS FOR TREATING CNS DISORDERS” (SAGE THERAPEUTICS, INC., priority 2017, published 2020)

Tests used:
Assay type in all cases: cell-based
[1] = test system: GABA receptor trafficking; assay: GABA receptor trafficking measured by GABAergic current density (FIG. 14); settings: measured by the GABAergic current density
Text: As shown in above examples, not all neurosteroids can modulate GABA receptor trafficking.

[2] = target: T1, α1β2γ2 GABAA receptors (Homo sapiens, UniProt P14867+P18507+P47870); assay: Whole-cell patch clamp, potentiation of GABA EC20 currents at recombinant synaptic-type receptors (LTK cells); settings: LTK, relative percentage potentiation of GABA EC20 peak current; n = 3; read-out: Emax ± S.E.M., α1β2γ2
T1 construct: expressed in transfected cells
Experimental: (§1) Cellular electrophysiology was used to measure the pharmacological properties of ALLO, ganaxolone and SGE-516 in heterologous cell systems. Compounds were tested for their ability to affect GABA mediated currents at a submaximal agonist dose (GABA EC20=2 μM).
(§2) LTK cells were stably transfected with the α1β2γ2 subunits of the GABA receptor and CHO cells are transiently transfected with the α4β3γ subunits via the Lipofecatamine method. Cells were passaged at a confluence of about 50-80% and then seeded onto 35 mm sterile culture dishes containing 2 ml culture complete medium without antibiotics or antimycotics. Cells were cultivated at a density that enabled the recording of single cells without visible connections to other cells.
(§3) Whole-cell currents were measured with HEKA EPC-10 amplifiers using PatchMaster software. Bath solution for all experiments contained (in mM): NaCl 137, KCl 4, CaCl2 1.8, MgCl2 1, HEPES 10, D-Glucose 10, pH 7.4 with NaOH. Intracellular (pipette) solution contained (in mM): KCl 130, MgCl2 1, Mg-ATP 5, HEPES 10, EGTA 5, pH 7.2 with KOH. During experiments, cells and solutions were maintained at room temperature (19° C.-30° C.). For manual patchclamp recordings, cell culture dishes were placed on the dish holder of the microscope and continuously perfused (1 ml/min) with bath solution. After formation of a Gigaohm seal between the patch electrode and the cell (pipette resistance range: 2.5 MΩ-6.0MΩ; seal resistance range: >1 GΩ) the cell membrane across the pipette tip was ruptured to assure electrical access to the cell interior (whole-cell patch configuration).
(§4) Cells were voltage-clamped at a holding potential of −80 mV. GABAA receptors were activated by 2 μM GABA and compounds were sequentially applied at increasing concentrations for 30 s prior to a 2 s application of GABA. GABA and compounds were applied to cells via the Dynaflow perfusion system (Cellectricon, Sweden). Test compounds were dissolved in DMSO to form 10 mM stock solution and serially diluted to 0.01, 0.1, 1, and 10 μM in bath solution. […] All concentrations of test compound were tested on each cell. The relative percentage potentiation was defined as the peak amplitude in response to GABA EC20 in the presence of test compound divided by the peak amplitude in response to GABA EC20 alone, multiplied by 100.
(§5) ALLO and ganaxolone are known PAMs of both synaptic and extrasynaptic GABAAR-mediated currents. […] The α1β2γ2 or α4β3δ subunit combinations were chosen as representatives of typical synaptic and extrasynaptic GABAA receptors respectively.

[3] = target: T2, α4β3δ GABAA receptors (Homo sapiens, UniProt O14764+P28472+P48169); assay: Whole-cell patch clamp, potentiation of GABA EC20 currents at recombinant extrasynaptic-type receptors (CHO cells); settings: data not shown
T2 construct: expressed in transfected cells; host or cells: CHO cells (transient transfection, Lipofectamine)
Experimental: as §1, §2, §3, §4, §5

T2 sequence (P48169 36-554): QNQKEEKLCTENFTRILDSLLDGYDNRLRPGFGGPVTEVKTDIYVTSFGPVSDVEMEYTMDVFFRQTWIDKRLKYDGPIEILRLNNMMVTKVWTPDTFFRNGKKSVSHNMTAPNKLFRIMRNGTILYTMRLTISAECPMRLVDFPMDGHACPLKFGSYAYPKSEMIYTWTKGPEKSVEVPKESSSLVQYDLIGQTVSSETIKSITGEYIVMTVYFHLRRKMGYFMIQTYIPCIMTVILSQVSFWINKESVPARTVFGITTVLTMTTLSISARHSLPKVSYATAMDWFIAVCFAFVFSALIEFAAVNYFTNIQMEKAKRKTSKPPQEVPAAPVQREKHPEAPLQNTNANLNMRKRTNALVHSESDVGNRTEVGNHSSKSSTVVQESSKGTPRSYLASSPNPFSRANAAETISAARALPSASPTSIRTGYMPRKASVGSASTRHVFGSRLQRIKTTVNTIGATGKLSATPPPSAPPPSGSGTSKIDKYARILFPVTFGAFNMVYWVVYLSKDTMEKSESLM
T2 sequence (P28472 26-473): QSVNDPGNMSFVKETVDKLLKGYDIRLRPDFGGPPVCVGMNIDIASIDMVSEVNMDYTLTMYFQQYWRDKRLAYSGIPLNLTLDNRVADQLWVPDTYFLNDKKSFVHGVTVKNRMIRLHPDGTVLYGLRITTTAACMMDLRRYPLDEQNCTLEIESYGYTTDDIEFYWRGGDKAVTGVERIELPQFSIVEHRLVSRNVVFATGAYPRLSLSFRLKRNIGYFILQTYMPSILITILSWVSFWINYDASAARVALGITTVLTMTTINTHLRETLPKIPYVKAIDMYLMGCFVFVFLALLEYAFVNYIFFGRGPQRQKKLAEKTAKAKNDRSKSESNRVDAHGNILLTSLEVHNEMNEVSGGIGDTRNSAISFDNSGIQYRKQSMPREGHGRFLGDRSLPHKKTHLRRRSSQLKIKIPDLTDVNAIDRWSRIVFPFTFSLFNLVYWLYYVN
T2 sequence (O14764 25-452): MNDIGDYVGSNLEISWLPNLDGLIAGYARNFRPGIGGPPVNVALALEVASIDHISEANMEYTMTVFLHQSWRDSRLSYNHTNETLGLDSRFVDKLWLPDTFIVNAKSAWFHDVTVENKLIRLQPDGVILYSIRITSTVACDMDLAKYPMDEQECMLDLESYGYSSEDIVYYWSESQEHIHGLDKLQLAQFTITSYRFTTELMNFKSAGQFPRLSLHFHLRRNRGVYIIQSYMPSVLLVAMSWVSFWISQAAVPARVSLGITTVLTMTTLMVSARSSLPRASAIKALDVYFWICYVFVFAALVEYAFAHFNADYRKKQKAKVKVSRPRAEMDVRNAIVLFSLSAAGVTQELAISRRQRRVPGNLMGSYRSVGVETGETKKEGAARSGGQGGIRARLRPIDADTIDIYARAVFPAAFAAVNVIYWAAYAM
T1 sequence (P14867 28-456): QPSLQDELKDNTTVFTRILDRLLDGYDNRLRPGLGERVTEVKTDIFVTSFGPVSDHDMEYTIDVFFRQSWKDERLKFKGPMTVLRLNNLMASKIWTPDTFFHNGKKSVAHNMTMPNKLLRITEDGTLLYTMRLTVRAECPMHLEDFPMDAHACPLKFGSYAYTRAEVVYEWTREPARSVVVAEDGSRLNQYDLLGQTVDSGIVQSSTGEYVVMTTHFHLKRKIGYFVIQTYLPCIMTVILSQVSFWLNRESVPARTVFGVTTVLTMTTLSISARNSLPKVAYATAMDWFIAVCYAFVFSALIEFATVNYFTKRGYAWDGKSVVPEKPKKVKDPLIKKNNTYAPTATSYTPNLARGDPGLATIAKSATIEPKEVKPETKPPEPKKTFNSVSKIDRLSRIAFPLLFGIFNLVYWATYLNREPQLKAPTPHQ
T1 sequence (P47870 25-512 limits assumed): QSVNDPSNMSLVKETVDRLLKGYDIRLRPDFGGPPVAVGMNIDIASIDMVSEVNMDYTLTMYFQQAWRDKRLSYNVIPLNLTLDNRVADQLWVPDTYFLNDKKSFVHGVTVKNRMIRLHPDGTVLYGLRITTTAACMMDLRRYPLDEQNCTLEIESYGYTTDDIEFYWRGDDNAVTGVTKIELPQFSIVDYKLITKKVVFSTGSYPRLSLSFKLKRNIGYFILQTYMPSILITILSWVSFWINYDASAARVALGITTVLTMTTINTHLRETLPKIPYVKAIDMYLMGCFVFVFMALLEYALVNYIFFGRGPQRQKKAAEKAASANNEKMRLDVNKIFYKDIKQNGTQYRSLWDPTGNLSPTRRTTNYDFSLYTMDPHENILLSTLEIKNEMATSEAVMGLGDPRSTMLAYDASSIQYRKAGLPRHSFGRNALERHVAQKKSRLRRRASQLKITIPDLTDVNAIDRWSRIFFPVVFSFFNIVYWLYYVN
T1 sequence (P18507 40-475): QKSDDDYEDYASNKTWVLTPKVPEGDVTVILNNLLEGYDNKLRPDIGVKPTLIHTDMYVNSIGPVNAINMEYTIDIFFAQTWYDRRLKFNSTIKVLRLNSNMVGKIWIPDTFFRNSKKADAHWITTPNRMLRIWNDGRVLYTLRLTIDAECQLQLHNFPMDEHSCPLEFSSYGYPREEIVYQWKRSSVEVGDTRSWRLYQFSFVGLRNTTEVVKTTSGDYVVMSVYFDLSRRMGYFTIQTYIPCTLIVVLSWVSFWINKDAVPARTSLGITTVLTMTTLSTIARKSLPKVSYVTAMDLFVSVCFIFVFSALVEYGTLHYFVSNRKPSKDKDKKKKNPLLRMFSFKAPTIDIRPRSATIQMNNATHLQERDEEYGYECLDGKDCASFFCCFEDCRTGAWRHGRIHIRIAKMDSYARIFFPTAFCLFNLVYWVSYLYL

Structure (SMILES) | modulation of GABA receptor trafficking [1] | Emax [2] | effect on GABA evoked currents in α4β3δ receptors [3]
C[C@@]1(O)CC[C@H]2[C@H](CC[C@@H]3[C@@H]2CC[C@]2(C)[C@@H](C(=O)Cn4cc(C#N)cn4)CC[C@@H]32)C1 [SAGE-217] | modulated GABA receptor trafficking | – | –
CN1C(=O)CN=C(c2ccccc2)c2cc(Cl)ccc21 [diazepam] | – | 184% | did not alter
